Data from PubChem BioAssay (NCI).
“And” between values parts separate entries of the source, which are not always exact repeats. Equal entries are not always repeated.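 How tested: cells in 96-well plates exposed to compound for 48 hours at five concentrations. GI50 marks 50% less growth. The concentration for full growth arrest is given as TGI.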

Assays:
Experiment in all cases: inhibition of tumour cell growth, NCI panel, 48 h
[1] = system: SN12C renal
[2] = system: NCI-H23 lung
[3] = system: KM12 colon
[4] = system: HCC-2998 colon
[5] = system: SK-MEL-28 melanoma
[6] = system: UACC-257 melanoma
[7] = system: RXF 393 renal
[8] = system: A498 renal
[9] = system: OVCAR-5 ovarian
[10] = system: M14 melanoma

Compound | GI50 [1] | TGI [1] | GI50 [2] | TGI [2] | GI50 [3] | TGI [3] | GI50 [4] | TGI [4] | GI50 [5] | TGI [5] | GI50 [6] | TGI [6] | GI50 [7] | TGI [7] | GI50 [8] | TGI [8] | GI50 [9] | TGI [9] | GI50 [10] | TGI [10]
COc1ccc(C(=O)CC2(O)C(=O)Nc3c(Cl)ccc(Cl)c32)cc1 (stereo not drawn) | 4.6 µM | > 95.1 µM | 4.61 µM | > 60.6 µM | 0.732 µM | > 59.2 µM | 5.24 µM | > 54 µM | 6.22 µM | > 100 µM | 15.5 µM | > 100 µM | 3.07 µM | > 100 µM | 0.599 µM | 7.02 µM | 5.23 µM | > 100 µM | 0.56 µM | > 22.2 µM
Nc1nc2nc3c(nc2c(=O)[nH]1)CN(c1ccc(C(=O)O)cc1)C3=O | – | > 100 µM | – | > 100 µM | – | > 100 µM | – | > 100 µM | – | > 100 µM | – | > 100 µM | – | > 100 µM | – | > 100 µM | – | > 100 µM | – | > 100 µM
O=P(O)(O)OC1C(OP(=O)(O)O)C(OP(=O)(O)O)C(OP(=O)(O)O)C(OP(=O)(O)O)C1OP(=O)(O)O (stereo not drawn) | > 2000 µM | > 2000 µM | > 2000 µM | > 2000 µM | > 1190 µM | > 2000 µM | > 2000 µM | > 2000 µM | > 2000 µM | > 2000 µM | > 2000 µM | > 2000 µM | > 500 µM and 1720 µM | > 2000 µM | > 500 µM and 1190 µM | > 2000 µM | > 2000 µM | > 2000 µM | > 2000 µM | > 2000 µM
CCC12C=CCN3CC[C@]4(C(=C(C(=O)OC)[C@@H]1Nc1ncnc5c1ncn5C1OC(COC(C)=O)C(OC(C)=O)C1OC(C)=O)Nc1ccccc14)C32 (stereo partly drawn) | – | 4.45 µM | – | 4.06 µM | – | 5.51 µM | – | 4.56 µM | – | 10.8 µM | – | 16.8 µM | – | 3.92 µM | – | 4.56 µM | – | 8.94 µM | – | 7.03 µM
COc1ccc(CCNc2nc3ccccc3c3[nH]c4ccccc4c23)cc1OC | 3.58 µM | 16.5 µM | 10.4 µM | 24.6 µM | 1.53 µM | 3.58 µM | 1.6 µM | 3.1 µM | 1.71 µM | 3.21 µM | 1.99 µM | 3.8 µM | 1.47 µM | 3.15 µM | 2.75 µM | 9.48 µM | 3.48 µM | 11.6 µM | 1.87 µM | 3.5 µM
CC(=O)NNc1nc(C)c(C(/C=C/c2ccc(/C=C/C(=N\NC(=O)c3ccncc3)c3sc(NNC(C)=O)nc3C)cc2)=N/NC(=O)c2ccncc2)s1 | – | > 100 µM | – | > 100 µM | – | > 100 µM | – | > 100 µM | – | > 100 µM | – | > 100 µM | – | > 100 µM | – | > 100 µM | – | > 100 µM | – | > 100 µM
COc1ccc(/C=C2/SC(=Nc3c(C)nn(-c4ccccc4)c3N)NC2=O)cc1 | 8.39 µM | 55.2 µM | 5.69 µM | 59.5 µM | 3.5 µM | 13.6 µM | 6.87 µM | 20.6 µM | 11.6 µM | 50.5 µM | 6.63 µM | 65.6 µM | 14.5 µM | 47.8 µM | 1.07 µM | 2.79 µM | 10.9 µM | 63.2 µM | 3.72 µM | 22.6 µM
CC(C)(O)Cn1c(=O)c(Oc2ccc(F)cc2F)cc2cnc(NC3CCOCC3)nc21 | > 25 µM | > 25 µM | > 25 µM | > 25 µM | > 25 µM | > 25 µM | > 25 µM | > 25 µM | > 25 µM | > 25 µM | > 25 µM | > 25 µM | > 25 µM | > 25 µM | > 14.7 µM | > 25 µM | > 25 µM | > 25 µM | > 25 µM | > 25 µM
COc1cc(-c2cc(-c3ccc(N(C)C)cc3)nc(N3CCC(O)CC3)c2C#N)cc(OC)c1OC | 0.689 µM | 6.44 µM | 1.35 µM | 6.74 µM | 0.579 µM | 4 µM | 0.54 µM | 6.48 µM | 0.992 µM | 3.23 µM | 0.3 µM | 0.969 µM | 0.177 µM | 3.27 µM | 1.19 µM | 19.1 µM | 0.459 µM | > 36.3 µM | 0.282 µM | 1.3 µM
CCc1nc(N)nc(N)c1-c1ccc(Cl)cc1 | 5.04 µM | > 100 µM | 7.62 µM | > 100 µM | 16.1 µM | > 100 µM | – | > 100 µM and 25.7 µM | > 100 µM | > 100 µM | 10.3 µM | > 100 µM | 22.6 µM | > 100 µM | 24.1 µM | > 100 µM and 42.4 µM | 31.7 µM | > 100 µM | – | > 100 µM
COc1c(O)c2ccccc2c2cc(O)ccc12 | – | 14.1 µM | – | 10.6 µM | – | 25.7 µM | – | 32.7 µM | – | 11.9 µM | – | 5.24 µM | – | 22.9 µM | – | 24.1 µM | – | 21.7 µM | – | 8.57 µM
NC(=O)C/C=C/CC(N)=O | – | > 100 µM | – | > 100 µM | – | > 100 µM | – | > 100 µM | – | > 100 µM | – | > 100 µM | – | > 100 µM | – | > 100 µM | – | > 100 µM | – | > 100 µM
COc1ccc([C@H]2c3cc(OC)c(OC)cc3C=C(C=O)C2CO)cc1OC (stereo partly drawn) | 5.7 µM | > 100 µM | 7.15 µM | > 100 µM | 2.9 µM | 43.6 µM | 12.1 µM | 76.3 µM | 6.62 µM | > 100 µM | > 100 µM | > 100 µM | 3.27 µM | > 100 µM | 19 µM | > 100 µM | 43 µM | > 100 µM | 4.41 µM | > 100 µM
COC(=O)C1=CC(=O)C(C(=O)Nc2ccc(OC)cc2)C(c2ccccc2)O1 (stereo not drawn) | – | > 89.1 µM | – | 46.6 µM | – | > 100 µM | – | > 78.7 µM | – | > 86.3 µM | – | > 100 µM | – | 52.8 µM | – | 68 µM | – | > 100 µM | – | 98.7 µM
COc1cc[c]([Hg][Cl])cc1 | 2.51 µM | 6.17 µM | 3.03 µM | 22.4 µM | 14.4 µM | 27.8 µM | 13.5 µM | 27.8 µM | 1.65 µM | 3.36 µM | 4.16 µM | 14.5 µM | 1.76 µM | 3.14 µM | 17.6 µM | 31.5 µM | 20.1 µM | 37.6 µM | 1.68 µM | 3.87 µM
COC(=O)C1=Cc2cc3c(cc2[C@H](c2ccc4c(c2)OCO4)C1C(=O)OC)OCO3 (stereo partly drawn) | – | > 100 µM | – | > 100 µM | – | > 100 µM | – | > 100 µM | – | > 100 µM | – | > 100 µM | – | > 100 µM | – | 74 µM | – | > 100 µM | – | > 100 µM
CN(C)C1(C#N)CCC2(CC1)OCCO2 | – | > 100 µM | – | > 100 µM | – | > 100 µM | – | > 100 µM | – | > 100 µM | – | > 100 µM | – | > 100 µM | – | > 100 µM | – | > 100 µM | – | > 100 µM
Cc1cc2c(-c3nc4ccccc4[nH]3)c(O)c(O)cc2c(O)c1-c1c(C)cc2c(-c3nc4ccccc4[nH]3)c(O)c(O)cc2c1O | 0.0272 µM | 8.08 µM | 0.0289 µM | 1.07 µM | 0.017 µM | 0.775 µM | 0.0362 µM | 8.65 µM | 0.0976 µM | 15.8 µM | 0.136 µM | 16.2 µM | 0.0434 µM | 3.56 µM | 0.00875 µM | 0.0374 µM | 0.0852 µM | > 20.3 µM | 0.08 µM | > 50 µM
O=C(Nc1ccc(Cl)c(Cl)c1)Nc1ccc(Cl)c([N+](=O)[O-])c1 | 1.04 µM | 3.94 µM | 0.698 µM | 2.69 µM | 1.07 µM | 4.38 µM | 1.22 µM | 4.58 µM | 1.3 µM | 4.62 µM | 2.85 µM | 7.15 µM | 2.95 µM | 9.29 µM | 1.37 µM | 4.47 µM | 2.79 µM | 9.29 µM | 1.46 µM | 5.04 µM
O=c1c(Cl)nsnc1Cl | – | 48.4 µM | – | 50.5 µM | – | > 57.8 µM | – | 35.2 µM | – | 35.1 µM | – | 26.8 µM | – | 24.8 µM | – | 28.8 µM | – | 38.6 µM | – | 12.8 µM
COc1ccc(NC(=O)CC/C(CC(=O)c2ccco2)=N/Nc2ccc([N+](=O)[O-])cc2[N+](=O)[O-])cc1 | – | > 100 µM | – | > 100 µM | – | > 100 µM | – | > 100 µM | – | > 100 µM | – | > 100 µM | – | > 100 µM | – | > 100 µM | – | > 100 µM | – | > 100 µM
C=C1C(=O)OC2C1C(OC(=O)/C(=C/C)COC(C)=O)CC1(CO1)C1C(OC(=O)/C(=C/C)CO)C=C(C)C21 (stereo not drawn) | – | 3.81 µM | – | 3.97 µM | – | 15.3 µM | – | 3.39 µM | – | 4.16 µM | – | 6.99 µM | – | 2.31 µM | – | 8.94 µM | – | 25.9 µM | – | 3.86 µM
